In article PMC3368874, “Characterization of 4-HNE Modified L-FABP Reveals Alterations in Structural and Functional Dynamics” (PLoS ONE, 2012):
Like-named read-outs stand apart in the source and are kept apart here. One block for each compound: values may come before it.

Experiments:
[1] = parameters: method as in PMID 12437335; conditions: cited from earlier work
apo rL-FABP = molecular target: T1, apo rL-FABP (Mus musculus, UniProt P12710); test: Thermal denaturation of apo rL-FABP (UV-monitored)
T1 construct: made in house; host or cells: Escherichia coli BL21 (DE3)
T1 sequence (P12710 1-127): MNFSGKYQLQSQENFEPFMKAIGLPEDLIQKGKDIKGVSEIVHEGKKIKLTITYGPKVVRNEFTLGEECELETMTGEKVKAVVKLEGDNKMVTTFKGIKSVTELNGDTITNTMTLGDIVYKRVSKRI
Procedure: (§1) The stability of rL-FABP was assessed using UV-monitored heating experiments. Native (apo and holo) and 4-HNE modified (apo and holo) rL-FABP (0.8 mg/ml) was thermally denatured in 50 mM tricine buffer (pH 8.0) at 40–95°C over 1.5 hours in a 0.7 mL quartz cell (Starna Cells). Absorbance of rL-FABP was monitored at 260–360 nm using a Chirascan Plus Spectrometer (Applied Photophysics, Leatherhead, Surrey, UK) once per minute. Temperature was continuously ramped 1°C/min. Light scattering was recorded continuously at 360 nm to monitor protein aggregation. Temperature of aggregation (Tm) was determined using Global Analysis T-Ramp software provided by Applied Photophysics (Pro-Data Global3 v1.1.0) following baseline correction.

4-HNE modified rL-FABP = molecular target: T2, 4-HNE modified rL-FABP (Mus musculus, UniProt P12710); test: ANS equilibrium binding to 4-HNE treated rL-FABP (fluorescence)
T2 construct: made in house; host or cells: Escherichia coli BL21 (DE3)
T2 sequence (P12710 1-127): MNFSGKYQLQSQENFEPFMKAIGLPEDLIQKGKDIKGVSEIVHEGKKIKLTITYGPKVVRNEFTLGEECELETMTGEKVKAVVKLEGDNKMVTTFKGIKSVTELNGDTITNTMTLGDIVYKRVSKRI
Procedure: (§2) Steady-state fluorescence spectra were measured using a HORIBA JOBIN YVON FluoroMax-3 Fluorometer (Edison, NJ USA). The binding of ANS to rL-FABP was monitored following excitation at 370 nm and emission at 475 nm, with slits set at 2 and 4 nm, respectively. Measurements were taken at ambient temperature in a 0.7 mL fluorescence cuvette (Starna Cells, Atascadero, CA). Equilibrium binding studies were conducted with saturating concentrations of ANS according to previous studies, [30] with slight modifications. Briefly, ANS (0–45 µM) was titrated into 1 µM rL-FABP in 50 mM tricine buffer (pH 8.0), mixed for 30 seconds, and emission spectra were recorded. rL-FABP was either treated with 4-HNE (0.1X [5.93 µM], 1X [53.93 µM], or 5X [245.09 µM]) or the arginine blocker phenylglyoxal (PG) (10 mM), or a combination of the two (PG +5X). Following treatments, protein was dialyzed overnight in tricine buffer, pH 8.0. Preparation of ANS was conducted according to Denicola et al., where it was solubilized in absolute ethanol and quantified at Abs372 with an extinction coefficient of 8,000 cm^−1·M^−1 prior to use.
(§3) Statistical analysis and generation of graphs was performed using GraphPad Prism (v 4.02; GraphPad Software, San Diego, CA) and SigmaPlot (v10.0; Systat Software, San Jose, CA). Statistical differences between control and treated samples were assessed using a paired Student’s t test or a one-way ANOVA with Tukey’s post-test. Differences were considered significant if p<0.05. Nonlinear regression (curve fit) analysis was performed using a two-site binding hyperbola (eq 1), where ΔF is the enhancement in fluorescence intensity upon the binding of ANS to L-FABP to a point of saturation (Bmax). [drawing 1] (1)

holo rL-FABP = molecular target: T3, holo rL-FABP (Mus musculus, UniProt P12710); test: Thermal denaturation of holo rL-FABP (UV-monitored); conditions: semi-quantitative
T3 construct: made in house; host or cells: Escherichia coli BL21 (DE3)
T3 sequence (P12710 1-127): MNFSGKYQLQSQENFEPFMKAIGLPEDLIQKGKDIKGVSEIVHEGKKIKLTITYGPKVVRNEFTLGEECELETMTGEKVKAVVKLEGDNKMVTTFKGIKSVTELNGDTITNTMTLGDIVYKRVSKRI
Procedure: as §1

rL-FABP [2] = molecular target: T4, rL-FABP (Mus musculus, UniProt P12710); test: ANS equilibrium binding to native rL-FABP (fluorescence)
T4 construct: made in house; host or cells: Escherichia coli BL21 (DE3)
T4 sequence (P12710 1-127): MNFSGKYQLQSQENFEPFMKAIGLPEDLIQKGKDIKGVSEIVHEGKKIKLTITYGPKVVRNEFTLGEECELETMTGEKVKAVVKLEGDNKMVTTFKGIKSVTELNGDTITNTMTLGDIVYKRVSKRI
Procedure: as §2, §3

PG treated rL-FABP = molecular target: T5, PG treated rL-FABP (Mus musculus, UniProt P12710); test: ANS equilibrium binding to phenylglyoxal (PG) treated rL-FABP
T5 construct: made in house; host or cells: Escherichia coli BL21 (DE3)
T5 sequence (P12710 1-127): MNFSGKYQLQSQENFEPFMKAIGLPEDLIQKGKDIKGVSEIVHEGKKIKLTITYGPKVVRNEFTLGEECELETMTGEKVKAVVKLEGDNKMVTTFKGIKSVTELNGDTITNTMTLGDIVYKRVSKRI
Procedure: as §2, §3

[3] = molecular target: T6, PG + 5X 4-HNE treated rL-FABP (Mus musculus, UniProt P12710); test: ANS equilibrium binding to PG + 5X 4-HNE treated rL-FABP
T6 construct: made in house; host or cells: Escherichia coli BL21 (DE3)
T6 sequence (P12710 1-127): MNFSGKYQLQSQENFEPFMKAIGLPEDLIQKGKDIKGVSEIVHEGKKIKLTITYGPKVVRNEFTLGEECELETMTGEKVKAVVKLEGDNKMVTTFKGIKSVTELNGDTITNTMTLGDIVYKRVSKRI
Procedure: as §2, §3

rL-FABP [4] = molecular target: T4, rL-FABP; test: Displacement of ANS by fatty acids, WT rL-FABP; format: binding; conditions: for bi (counts inhibitable) / Ki: 45 µM ANS, 1 µM protein; for Ki: read-out: ki (inhibition constant)
Procedure: (§4) Lipid displacement assays were adapted from previous publications, [30]. Briefly, lipids were used to displace ANS bound to rL-FABP to assess how 4-HNE modification affects affinity towards more biologic ligands. Lipid stocks were diluted in absolute ethanol (10 mM, 5 mM, 1 mM, 0.1 mM) and prepared in a nitrogen gas chamber. Using conditions similar to ANS binding, increasing concentrations of FAs [stearate (SA), oleate (OA), and LA] were titrated into a pre-equilibrated solution containing 45 µM ANS, 1 µM r-LFABP, and 50 mM tricine (pH 8.0). The sample was mixed for an additional 30 seconds and the excitation and emission of ANS was measured as mentioned, where the loss of fluorescence indicates affinity towards the lipid.
(§5) For the displacement assays, one-site inhibition analysis of the data was utilized based on the fit of the data (instead of a two-site inhibition analysis) (eq2). Fluorescence counts that are inhibitable are denoted as bi, and residual counts are br. The concentration of OA, SA or LA is denoted as [FA]. The Hill constant, η, indicates the cooperativity between the binding sites, where if η >1 the sites are positively cooperative, η <1 the site are negatively cooperative, and if η = 1 the sites are non-cooperative. [drawing 2] (2)

4-HNE adducted rL-FABP = molecular target: T7, 4-HNE adducted rL-FABP (Mus musculus, UniProt P12710); test: Displacement of ANS by fatty acids, 1X 4-HNE treated rL-FABP; format: binding; conditions: for bi (counts inhibitable) / Ki: 1X 4-HNE (53.95 µM) treated rL-FABP; for Ki: read-out: ki (inhibition constant); for br (counts residual) / n (hill coefficient): 1X 4-HNE treated rL-FABP; for reduction of maximal binding to the FA by 4-HNE: 1X 4-HNE treated versus WT rL-FABP
T7 construct: made in house; host or cells: Escherichia coli BL21 (DE3)
T7 sequence (P12710 1-127): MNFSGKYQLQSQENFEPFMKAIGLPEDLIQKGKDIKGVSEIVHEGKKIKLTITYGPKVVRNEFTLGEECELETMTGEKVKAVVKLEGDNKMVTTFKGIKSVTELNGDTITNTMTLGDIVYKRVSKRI
Procedure: as §4, §5

[5] = rL-FABP treated with 1X 4-HNE (53.93 µM)
[6] = rL-FABP treated with 5X 4-HNE (245.09 µM)
[7] = rL-FABP treated with 5X 4-HNE + PG

- Tm of apo rL-FABP (apo rL-FABP; 0.1X 4-HNE (4.93 µM)): 70.09±0.004 °C
- Tm of apo rL-FABP (apo rL-FABP; 1X 4-HNE (49.26 µM)): 68.56±0.05 °C
- Tm of apo rL-FABP (apo rL-FABP; 5X 4-HNE (246.31 µM)): 66.38±0.15 °C
- ΔTm of apo L-FABP by 4-HNE adduction (apo rL-FABP; P<0.01): 5.44 °C
- reduction of capacity for ligand when adducted by 4-HNE (4-HNE modified rL-FABP; saturation analyses): approximately 50%
- Tm of holo rL-FABP (holo rL-FABP; 0.1X 4-HNE (4.93 µM)): 83.84±0.39 °C
- Tm of holo rL-FABP (holo rL-FABP; 1X 4-HNE (49.26 µM)): 84.89±0.48 °C
- Tm of holo rL-FABP (holo rL-FABP; 5X 4-HNE (246.31 µM)): 83.698±0.53 °C
SMILES: CCCCCC(O)C=CC=O (stereo not drawn) [4-HNE, 4-hydroxy-2-nonenal]
- half-life [1]: ~2 min

SMILES: O=S(=O)(O)c1cccc2cccc(Nc3ccccc3)c12 [ANS, 1-Anilinonaphthalene-8-Sulfonic Acid]
- Kd (rL-FABP [2]): 347 ± 153 nM
- Bmax1 (rL-FABP [2]; native rL-FABP (0X 4-HNE), 1 µM protein, primary site): 540,200±142,500 AFU
- Bmax2 (rL-FABP [2]; native rL-FABP, secondary site): 500,500±116,800 AFU
- Kd (rL-FABP [2]; read-out: Kd2, native rL-FABP, secondary site): 6170 ± 1440 nM
- decrease in the affinity for ANS, secondary binding site (4-HNE modified rL-FABP; 5X 4-HNE versus native (kd2)): ~6 fold
- Kd (4-HNE modified rL-FABP; Kd1, rL-FABP treated with 0.1X 4-HNE (5.93 µM)): 132 ± 74 nM
- Kd (4-HNE modified rL-FABP; Kd1, rL-FABP treated with 1X 4-HNE (53.93 µM)): 135 ± 74 nM
- Kd (4-HNE modified rL-FABP; Kd1, rL-FABP treated with 5X 4-HNE (245.09 µM)): 395 ± 101 nM
- Bmax1 (4-HNE modified rL-FABP; rL-FABP treated with 0.1X 4-HNE (5.93 µM)): 175,500±36,800 AFU
- Bmax1 (4-HNE modified rL-FABP; [5]): 123,000±28,900 AFU
- Bmax2 (4-HNE modified rL-FABP; [5]): 548,900±23,700 AFU
- Bmax1 (4-HNE modified rL-FABP; [6]): 238,100±21,700 AFU
- Bmax2 (4-HNE modified rL-FABP; [6]): 537,400±81,900 AFU
- Kd (4-HNE modified rL-FABP; read-out: Kd2, rL-FABP treated with 0.1X 4-HNE (5.93 µM)): 7400 ± 1070 nM
- Kd (4-HNE modified rL-FABP; read-out: Kd2, rL-FABP treated with 1X 4-HNE (53.93 µM)): 4990 ± 710 nM
- Kd (4-HNE modified rL-FABP; read-out: Kd2, rL-FABP treated with 5X 4-HNE (245.09 µM)): 34200 ± 13900 nM
- Kd (PG treated rL-FABP): 165 ± 111 nM
- Bmax1 (PG treated rL-FABP; rL-FABP treated with PG 10 mM): 83,200±23,200 AFU
- Bmax2 (PG treated rL-FABP; rL-FABP treated with PG 10 mM): 446,400±17,500 AFU
- Kd (PG treated rL-FABP; read-out: Kd2, rL-FABP treated with PG 10 mM): 7180 ± 121 nM
- Kd [3]: 326 ± 127 nM
- Bmax1 [3, 7]: 168,200±22,900 AFU
- Bmax2 [3, 7]: 512,200±64,500 AFU
- Kd ([3]; read-out: Kd2, rL-FABP treated with 5X 4-HNE + PG): 27900 ± 10700 nM

- br (counts residual) (rL-FABP [4]): 164,800±43,900 AFU
- n (hill coefficient) (rL-FABP [4]): 1.38±0.26
- bi (counts inhibitable) (rL-FABP [4]): 888,000±54 AFU
- Ki (rL-FABP [4]): 1560 ± 290 nM
- bi (counts inhibitable) (4-HNE adducted rL-FABP): 449,500±11,400 AFU
- Ki (4-HNE adducted rL-FABP): 2800 ± 300 nM
- br (counts residual) (4-HNE adducted rL-FABP): 96,300±9,200 AFU
- n (hill coefficient) (4-HNE adducted rL-FABP): 1.76±0.14
- reduction of maximal binding to the FA by 4-HNE (4-HNE adducted rL-FABP): 49%
SMILES: CCCCC/C=C\C/C=C\CCCCCCCC(=O)O [Linoleic Acid]

- br (counts residual) (rL-FABP [4]): 171,600±19,800 AFU
- n (hill coefficient) (rL-FABP [4]): 2.31±0.29
- bi (counts inhibitable) (rL-FABP [4]): 680,200±26,500000 AFU
- Ki (rL-FABP [4]): 5880 ± 1450 nM
- bi (counts inhibitable) (4-HNE adducted rL-FABP): 457,600±26,400 AFU
- Ki (4-HNE adducted rL-FABP): 690 ± 97 nM
- br (counts residual) (4-HNE adducted rL-FABP): 63,500±19,200 AFU
- n (hill coefficient) (4-HNE adducted rL-FABP): 0.81±0.0999
- reduction of maximal binding to the FA by 4-HNE (4-HNE adducted rL-FABP): 32.7%
SMILES: CCCCCCCC/C=C\CCCCCCCC(=O)O [Oleic Acid]
